# Measured values reported in patent EP2608671B1, “COMPOUNDS FOR TREATMENT OF CANCER” (Gtx, Inc., priority 2010, dated 2012).
# Where two headings read alike, the source gives them in different places.
# Columns and labels:
# PC-3/TxR tumors = conditions: PC-3/TxR xenograft, IV 20mpk, day 1 and 9
# [1] = test system: PC-3 prostate tumor xenograft; assay: In vivo antitumor efficacy, PC-3 xenograft; set-up: species or system mouse; conditions: Prostate (PC-3) xenograft, 21 days
# From the text: (§1) PC-3 and A375 tumor xenograft studies.
# (§2) In vivo antitumor activity [tumor growth inhibition (% T/C), tumor growth delay (T-C value), and tumor cell kill (total log cell kill)].
# [2] = test system: A375 human melanoma xenograft; assay: In vivo antitumor efficacy, A375 melanoma xenograft; set-up: species or system mouse; conditions: Melanoma (A375) xenograft, 20 mg/kg i.p.
# Experimental: DTIC at 60 mg/kg was used as a positive control again.
# as §1, §2
# A375 = assay: SRB cell growth inhibition (cytotoxicity) assay; type: cell-based, human
# LNCaP [3] = test system: LNCaP
# PC-3 = assay: cells
# From the text: (§3) The only compounds which belong to the invention are the ones falling under the scope of formula (XI).
# Cells were stained with SRB solution.
# Cells. […] Cells between the third and fifth passages were used for experiments.
# Cell growth inhibition studies. […] Cells were stained with sulphorhodamine B (SRB) solution.
# B16-F1 = assay: SRB cell growth inhibition (cytotoxicity) assay; type: cell-based, mouse
# From the text: as §3
# PPC-1 [4] = test system: PPC-1
# DU 145 [5] = test system: DU 145
# OVCAR-8 = assay: SRB growth inhibition, MDR model parent line; type: cell-based, human; conditions: read-out: IC50 ± SEM (nM) OVCAR-8
# [6] = test system: melanoma cell lines (A375, WM-164, B16-F1) and prostate cancer cell lines (LNCaP, DU 145, PC-3, PPC-1); assay: SRB cytotoxicity, melanoma and prostate cell panel (averages); type: cell-based
# From the text: as §3
# WM-164 = assay: SRB cell growth inhibition (cytotoxicity) assay; type: cell-based, human
# NCI/ADR-RES = assay: SRB growth inhibition, P-gp over-expressing MDR line; type: cell-based, human; conditions: for Resistance factor: 5760 min
# PPC-1 [7] = assay: cells; conditions: Homo sapiens, PPC-1, 96 h, read-out: IC50 ± SEM (nM), PPC-1
# [8] = 90 min
# in vivo [9] = conditions: mouse, po, 20 mg/kg
# DU 145 [10] = assay: cells; conditions: Homo sapiens, DU-145, 96 h, read-out: IC50 ± SEM (nM) Du 145
# in vivo [11] = conditions: rat, plasma, po, 10 mg/kg
# LNCaP [12] = assay: cells; conditions: Homo sapiens, 96 h, read-out: IC50 ± SEM (nM), LNCaP
# MDA-MB-435 = assay: SRB growth inhibition, sensitive parent melanoma line; type: cell-based; conditions: Homo sapiens, MDA-MB-435, read-out: IC50 ± SEM (nM) (n=3), MDA-MB-435; sensitive parent melanoma cell line
# MDA-MB-435/LCC6MDR1 = assay: SRB growth inhibition, multidrug-resistant melanoma line; type: cell-based; conditions: MDA-MB-435/LCC6 MDR1, read-out: IC50 ± SEM (nM) (n=3), MDA-MB-435/LCC6MDR1; multidrug-resistant melanoma cell line
# [13] = rat, IV; […] (1h, 2r), 5 mg/kg (5Ha, 5Hc)
# [14] = Table 21, Melanoma, n = 3, read-out: IC50 ± SEM (nM) A375
# [15] = read-out: IC50 ± SEM (nM) LNCaP, Table 21, Prostate, n = 3
# [16] = read-out: IC50 ± SEM (nM) PC-3, Table 21, Prostate, n = 3
# [17] = Table 21, Melanoma, n = 3, read-out: IC50 ± SEM (nM) B16-F1
# [18] = read-out: IC50 ± SEM (nM) PPC-1, Table 21, Prostate, n = 3
# [19] = read-out: IC50 ± SEM (nM) Dn-145, Table 21, Prostate, n = 3
# [20] = Table 6, read-out: IC50 ±SEM (nM), A375
# [21] = read-out: IC50 ±SEM (nM), LNCaP, Table 6
# [22] = read-out: IC50 ±SEM (nM), PC-3, Table 6
# [23] = Table 6, read-out: IC50 ±SEM (nM), B16-F1
# [24] = read-out: IC50 ±SEM (nM), PPC-1, Table 6
# [25] = read-out: IC50 ±SEM (nM), DU 145, Table 6
# [26] = Homo sapiens, PC-3, 96 h, read-out: IC50 ± SEM (nM), PC-3
# [27] = Homo sapiens, A-375, read-out: IC50 ± SEM (nM) (n=3), A375, Table 14A
# [28] = Homo sapiens, A-375, A375 melanoma cells, 48 h, SRB, read-out: IC50 ± SEM (nM) A375
# [29] = Mus musculus, B16-F1, read-out: IC50 ± SEM (nM) (n=3), B16-F1, Table 14A
# [30] = Mus musculus, B16-F1 melanoma cells, 48 h, SRB, read-out: IC50 ± SEM (nM) B16-F1
smiles,measurement,setting,value
CC(=O)O[C@@]12CO[C@@H]1C[C@H](O)[C@@]1(C)C(=O)[C@H](O)C3=C(C)[C@@H](OC(=O)[C@H](O)[C@@H](NC(=O)OC(C)(C)C)c4ccccc4)C[C@@](O)([C@@H](OC(=O)c4ccccc4)[C@H]21)C3(C)C [Dooetaxel],TGI (%),PC-3/TxR tumors; end point day 19,56%
same,Tumor size (mm^3) End,PC-3/TxR tumors; end point day 19,999 ± 905 mm^3
same,Tumor size (mm^3) Start,PC-3/TxR tumors; start,170 ± 86 mm^3
COc1cc(C(=O)c2csc(-c3ccccc3)n2)cc(OC)c1OC [SMART-H],% T/C,[1]; 5 mg/kg i.p.,29%
same,% T/C,[1]; 15 mg/kg i.p.,4%
same,Median time to reach 600 mm^3.,[2],28 days
same,% T/C,[2]; 34 days,30%
same,IC50,A375; [14],28 ± 5 nM
same,IC50,LNCaP [3]; [15],28 ± 4 nM
same,IC50,PC-3; [16],21 ± 1 nM
same,IC50,B16-F1; [17],55 ± 5 nM
same,IC50,PPC-1 [4]; [18],43 ± 5 nM
same,IC50,DU 145 [5]; [19],71 ± 4 nM
same,IC50,"OVCAR-8; Table 21, Ovarian, n = 3",35 ± 2 nM
COc1cc(C(=O)c2csc(-c3cc(F)c(F)c(F)c3)n2)cc(OC)c1OC [2p],IC50,A375; [20],2200 nM
same,IC50,LNCaP [3]; [21],> 10000 nM
same,IC50,PC-3; [22],2380 nM
same,IC50,B16-F1; [23],16600 nM
same,IC50,PPC-1 [4]; [24],1080 nM
same,IC50,DU 145 [5]; [25],1900 nM
O=C(c1ccc(F)cc1)c1c[nH]c(-c2ccc(O)cc2)n1 [12kb],IC50,"[6]; ABI compounds, Tables 11-13, read-out: IC50 (average over cell lines)",33000 nM
same,IC50,"LNCaP [3]; read-out: IC50 ± SEM (nM) LNCaP, LNCaP prostate cancer cells, 96 h, SRB",10000 nM
same,IC50,"WM-164; WM164 melanoma cells, 48 h, SRB, read-out: IC50 ± SEM (nM) WM164",> 10000 nM
same,IC50,"PC-3; read-out: IC50 ± SEM (nM) PC-3, PC-3 prostate cancer cells, 96 h, SRB",> 10000 nM
same,IC50,"B16-F1; B16-F1 melanoma cells, 48 h, SRB, read-out: IC50 ± SEM (nM) B16-F1",> 10000 nM
same,IC50,"PPC-1 [4]; read-out: IC50 ± SEM (nM) PPC-1, PPC-1 prostate cancer cells, 96 h, SRB",> 10000 nM
same,IC50,"DU 145 [5]; read-out: IC50 ± SEM (nM) Du 145, Du 145 prostate cancer cells, 96 h, SRB",> 10000 nM
COc1cc(C(=O)c2csc(-c3ccc(C)cc3)n2)cc(OC)c1OC [2m],IC50,A375; [20],11 nM
same,IC50,PC-3; [22],8.7 nM
same,IC50,B16-F1; [23],21 nM
same,IC50,PPC-1 [4]; [24],6.2 nM
same,IC50,DU 145 [5]; [25],6.9 nM
COc1cc(C(=O)c2csc(-c3ccc(O)cc3)n2)cc(OC)c1OC [SMART-OH],% T/C,[1]; 50 mg/kg i.p.,34%
same,Resistance factor,NCI/ADR-RES; NCI/ADR-RES relative to parent OVCAR-8,0.4
same,IC50,"NCI/ADR-RES; Table 21, Ovarian, n = 3, read-out: IC50 ± SEM (nM) NCI/ADR-RES",45 ± 5 nM
same,IC50,A375; [14],93 ± 11 nM
same,IC50,LNCaP [3]; [15],103 ± 9 nM
same,IC50,PC-3; [16],87 ± 5 nM
same,IC50,B16-F1; [17],113 ± 6 nM
same,IC50,PPC-1 [4]; [18],76 ± 2 nM
same,IC50,DU 145 [5]; [19],116 ± 14 nM
same,IC50,"OVCAR-8; Table 21, Ovarian, n = 3",110 ± 8 nM
"COc1cc(C(=O)c2c[nH]c(-c3ccc(Cl)cc3)n2)cc(OC)c1OC [12fa, (2-(4-Chlorophenyl)-1H-imidazol-4-yl)(3,4,5-trimethoxyphenyl)methanone]",IC50,PPC-1 [7],26 ± 0.2 nM
same,Solubility,[8]; aqueous solubility,12 µg/mL
same,AUC,in vivo [9],3350 ng·h/mL
same,Cmax,in vivo [9],2590 ng/mL
same,IC50,DU 145 [10],36 ± 0.4 nM
same,AUC,in vivo [11],3630 ng·h/mL
same,Cmax,in vivo [11],1110 ng/mL
same,IC50,PC-3; [26],35 ± 1 nM
same,IC50,"OVCAR-8; Homo sapiens, OVCAR-8 cells",47 nM
same,IC50,LNCaP [12],24 ± 1 nM
COc1cc(C(=O)c2csc(-c3ccccc3)n2)cc(OC)c1OCCN1C(=O)c2ccccc2C1=O [compound 20],IC50,A375; [20],38 nM
same,IC50,LNCaP [3]; [21],65 nM
same,IC50,PC-3; [22],73 nM
same,IC50,B16-F1; [23],42 nM
same,IC50,PPC-1 [4]; [24],73 nM
same,IC50,DU 145 [5]; [25],121 nM
"O=C(c1ccc(F)cc1)c1cn(S(=O)(=O)c2ccccc2)c(-c2ccc(Cl)cc2)n1 [11fb, (2-(4-chlorophenyl)-1-(phenylsulfonyl)-1H-imidazol-4-yl)(4-fluorophenyl)methanone]",IC50,PPC-1 [7],54 ± 1 nM
same,IC50,MDA-MB-435,50 nM
same,IC50,A375; [27],88 ± 9 nM
same,IC50,A375; [28],88 ± 9 nM
same,IC50,DU 145 [10],64 ± 1 nM
same,IC50,MDA-MB-435/LCC6MDR1,35 nM
same,IC50,"WM-164; Homo sapiens, WM164, read-out: IC50 ± SEM (nM) (n=3), WM-164, Table 14A",74 ± 8 nM
same,IC50,"WM-164; Homo sapiens, WM164 melanoma cells, 48 h, SRB, read-out: IC50 ± SEM (nM) WM164",70 ± 6 nM
same,IC50,PC-3; [26],76 ± 2 nM
same,IC50,B16-F1; [29],107 ± 12 nM
same,IC50,B16-F1; [30],107 ± 12 nM
same,IC50,LNCaP [12],48 ± 1 nM
COc1cc(C(=O)c2csc(-c3ccc(CC(N)=O)cc3)n2)cc(OC)c1OC [2q],IC50,A375; [20],> 20000 nM
same,IC50,LNCaP [3]; [21],> 10000 nM
same,IC50,PC-3; [22],> 10000 nM
same,IC50,B16-F1; [23],> 20000 nM
same,IC50,PPC-1 [4]; [24],> 10000 nM
same,IC50,DU 145 [5]; [25],> 10000 nM
"COc1ccc(-c2nc(C(=O)c3ccc(F)cc3)cn2S(=O)(=O)c2ccccc2)cc1 [11cb, (4-fluorophenyl)(2-(4-methoxyphenyl)-1-(phenylsulfonyl)-1H-imidazol-4-yl)methanone]",IC50,PPC-1 [7],32 ± 0.7 nM
same,IC50,MDA-MB-435,38 nM
same,IC50,A375; [27],36 ± 5 nM
same,IC50,A375; [28],36 ± 5 nM
same,IC50,"[6]; Prostate cell, read-out: IC50 (average over cell lines)",43 nM
same,IC50,DU 145 [10],52 ± 3 nM
same,IC50,MDA-MB-435/LCC6MDR1,30 nM
same,IC50,PC-3; [26],33 ± 2 nM
same,IC50,B16-F1; [29],71 ± 8 nM
same,IC50,B16-F1; [30],71 ± 8 nM
same,IC50,LNCaP [12],31 ± 2 nM
"COc1cc(C(=O)c2csc(-c3ccc(CN)cc3)n2)cc(OC)c1OC.Cl [2r, (2-(4-(Aminomethyl)phenyl)thiazol-4-yl)(3,4,5-trimethoxyphenyl)methanone hydrochloride]",Resistance factor,NCI/ADR-RES; NCI/ADR-RES vs OVCAR-8,0.4
same,solubility in PBS,"[8]; PBS pH 7.4, Figure 18",over 35 µg/mL
same,IC50,"[6]; Prostate cell, read-out: IC50 range over tested melanoma and prostate cell lines",13 to 80 nM
same,"CL (mL/min/kg), systemic clearance",[13],22 ± 13 mL/min/kg
same,"Vss (L/kg), volume of distribution",[13],0.33 ± 025 L/kg
same,bioavailability,in vivo [11],0.2%
